Each structure is given as a SMILES string. ≈ marks a conversion by molar mass, not a printed value. Read-outs that look alike come from different tables or passages of the source. Bounds are passed on as bounds.

As usually defined, the IC50 is the point on the concentration scale where inhibition reaches its midpoint. One may read the melting point as the temperature of the solid-liquid transition. As usually defined, the MIC is the lowest concentration that inhibits growth of the organism.

The test system of series [1] is Hela Henrietta Lacks strain cancer cells. As to the kind of experiment: MTT-based cytotoxicity assay, Hela. It counts as cell-based. To be noted: Homo sapiens. As to the method: (§1) Briefly, cells (2,500/well) were seeded in 96-well plates and cultured for 24 h, followed by treatment with the target compounds for another 48 h. MTT ([…], 20 μL) was added per well and incubated for another 2.5 h at 37 °C. Then the supernatant fluid was removed and 150 μL/well DMSO was added for 15–20 min. The absorbance (OD) of each well was measured at 570 nm, using a SpectraMAX M5 microplate spectrophotometer (Molecular Devices, Sunnyvale, CA, USA). The IC50 Values are means ± SEM of three independent experiments.

Series [2] concerns HepG2 hepatocellular liver carcinoma cells. Briefly: MTT-based cytotoxicity assay, HepG2. The class given is cell-based. To be noted: Homo sapiens. As to the method: as §1
(In general: Formazan colour is commonly taken as a measure of viable cells.)

For series [3], the system named is SKOV-3 ovarian carcinoma cells. Briefly: MTT-based cytotoxicity assay, SKOV-3. It counts as cell-based. To be noted: Homo sapiens. As to the method:
as §1

Series [4] relates to A549 lung adenocarcinoma epithelial cells. As to the kind of experiment: MTT-based cytotoxicity assay, A549. It counts as cell-based. To be noted: Homo sapiens. Here is the method: as §1
Series [5] deals with A375 human melanoma cells. As to the kind of experiment: MTT-based cytotoxicity assay, A375. The class given is cell-based. Here is the method:
as §1

Series [6] has as its system M. tuberculosis H37Rv (ATCC 27294). As to the kind of experiment: Antitubercular activity by microdilution method, M. tuberculosis H37Rv. The class given is cell-based. The settings on record: Mycobacterium tuberculosis, 264 h, growth similar to well inoculated with 10 CFU, read after 11 days by visual investigation, three replicates. For orientation: Broth dilution looks for growth in wells or tubes with falling amounts of substance.

For series [7], the system named is HCT116 colorectal carcinoma cells. As to the kind of experiment: MTT-based cytotoxicity assay, HCT116. It counts as cell-based. To be noted: Homo sapiens. Here is the method:
as §1

Series [8] deals with Vero normal African green monkey kidney epithelial cells. Briefly: MTT-based cytotoxicity assay, Vero. It counts as cell-based. The settings on record: for IC50: Chlorocebus sabaeus. Here is the method: as §1
Series [9] has as its system six different tumor cell lines. As to the kind of experiment: MTT-based cytotoxicity assay, six cell lines stated together. Here is the method: as §1
Where [10] appears, read: Hela, MTT, 48 h treatment, means ± SEM of three independent experiments, read-out: IC50.
[11] abbreviates: HepG2, MTT, 48 h treatment, means ± SEM of three independent experiments, read-out: IC50.
Setting [12] is: SK-OV-3, SKOV-3, MTT, 48 h treatment, means ± SEM of three independent experiments, read-out: IC50.
[13] abbreviates: A549, MTT, 48 h treatment, means ± SEM of three independent experiments, read-out: IC50.
Setting [14] is: A-375, A375, MTT, 48 h treatment, means ± SEM of three independent experiments, read-out: IC50.
[15] abbreviates: HCT-116, HCT116, MTT, 48 h treatment, means ± SEM of three independent experiments, read-out: IC50.
Where [16] appears, read: Vero normal cells, MTT, 48 h treatment, means ± SEM of three independent experiments, read-out: IC50.

`O=C(COc1ccc([N+](=O)[O-])c(F)c1)Nc1cccc(Cl)c1` [Compound 3a, N-(3-Chlorophenyl)-2-(3-fluoro-4-nitrophenoxy)acetamide] came in with a melting point of 150 to 151 °C. Also, the half-inhibitory concentration (IC50) in [1] (setting [10]) was over 40 µM. The IC50 in series [2] (setting [11]) is over 40 µM. Besides, in [3] (setting [12]), the half-inhibitory concentration (IC50) is over 40 µM. For the same molecule, the IC50 in [4] (setting [13]) was over 40 µM. The concentration for half-maximal inhibition (IC50) in series [5] (setting [14]) was over 40 µM. For the same molecule, it took 16 µg/mL (≈ 49.3 µM) to inhibit growth in [6] (MIC). Also, the IC50 in series [7] (setting [15]) is over 40 µM. Moreover, the IC50 in [8] (setting [16]) is over 40 µM.

In the case of `O=C(COc1ccc([N+](=O)[O-])c(F)c1)Nc1ccc(Cl)c(Cl)c1` [Compound 3b, N-(3,4-Dichlorophenyl)-2-(3-fluoro-4-nitrophenoxy)acetamide], the melting point was 175 to 176 °C. In series [6], this molecule came in with an MIC of 32 µg/mL (≈ 89.1 µM).

Molecule `O=C(COc1ccc([N+](=O)[O-])c(F)c1)Nc1ccc(Br)cc1F` [Compound 3c, N-(4-Bromo-2-fluorophenyl)-2-(3-fluoro-4-nitrophenoxy)acetamide] yielded a melting point of 160 to 162 °C. This molecule displayed an MIC in series [6] of 32 µg/mL (≈ 82.7 µM).

`O=C(COc1ccc([N+](=O)[O-])c(F)c1)Nc1ccc(Cl)c(C(F)(F)F)c1` [Compound 3d, N-(4-Chloro-3-(trifluoromethyl)phenyl)-2-(3-fluoro-4-nitrophenoxy)acetamide] registered a melting point of 163 to 164 °C. In addition, in [1] (setting [10]), the IC50 was 33.2 ± 2.5 µM. The IC50 in [2] (setting [11]) was over 40 µM. Also, the IC50 in [3] (setting [12]) is over 40 µM. Besides, the IC50 in series [4] (setting [13]) was over 40 µM. In addition, in [5] (setting [14]), the half-maximal inhibitory concentration (IC50) was over 40 µM. Moreover, it took 16 µg/mL (≈ 40.7 µM) to inhibit growth in series [6] (MIC). Moreover, the IC50 in series [7] (setting [15]) was over 40 µM. Moreover, the 50% inhibitory concentration (IC50) in [8] (setting [16]) was over 40 µM.

Molecule `O=C(COc1ccc([N+](=O)[O-])c(F)c1)Nc1cccc([N+](=O)[O-])c1` [Compound 3e, 2-(3-Fluoro-4-nitrophenoxy)-N-(3-nitrophenyl)acetamide] displayed a melting point of 199 to 201 °C. The minimal inhibitory concentration (MIC) in series [6] stood at 64 µg/mL (≈ 191 µM).

The molecule `COc1ccc(NC(=O)COc2ccc([N+](=O)[O-])c(F)c2)c(OC)c1` [Compound 3f, N-(2,4-Dimethoxyphenyl)-2-(3-fluoro-4-nitrophenoxy)acetamide] returned a melting point of 174 to 175 °C. This molecule showed a minimum inhibitory concentration (MIC) in [6] of 64 µg/mL (≈ 183 µM).

With `O=C(COc1ccc([N+](=O)[O-])c(F)c1)Nc1cc(C(F)(F)F)cc(C(F)(F)F)c1` [Compound 3g, N-(3,5-bis(Trifluoromethyl)phenyl)-2-(3-fluoro-4-nitrophenoxy)acetamide], the melting point lay within 168 to 169 °C. In [1] (setting [10]), the IC50 amounted to 20 ± 1.1 µM. Further, in [2] (setting [11]), the IC50 was found to be 21.6 ± 1.1 µM. Moreover, the half-inhibitory concentration (IC50) in [3] (setting [12]) stood at 12.2 ± 1.3 µM. The IC50 in series [4] (setting [13]) came out at 38.2 ± 1.5 µM. In addition, the IC50 in [5] (setting [14]) was 22.6 ± 0.9 µM. This molecule returned an MIC in series [6] of 8 µg/mL (≈ 18.8 µM). Besides, the IC50 in [7] (setting [15]) was determined as 33.8 ± 2 µM. The IC50 in series [8] (setting [16]) was over 40 µM.

For `O=C(COc1ccc([N+](=O)[O-])c(F)c1)Nc1ccc(F)c(Cl)c1` [Compound 3h, N-(3-Chloro-4-fluorophenyl)-2-(3-fluoro-4-nitrophenoxy)acetamide], the melting point was 166 to 167 °C. Besides, in series [1] (setting [10]), the IC50 was over 40 µM. In addition, the IC50 in series [2] (setting [11]) is over 40 µM. In addition, the IC50 in series [3] (setting [12]) was over 40 µM. In addition, the IC50 in series [4] (setting [13]) was over 40 µM. Besides, the IC50 in series [5] (setting [14]) was over 40 µM. The MIC in series [6] amounted to 16 µg/mL (≈ 46.7 µM). In [7] (setting [15]), the half-maximal inhibitory concentration (IC50) is over 40 µM. Further, the IC50 in series [8] (setting [16]) is over 40 µM.

In the case of `O=C(COc1ccc([N+](=O)[O-])c(F)c1)Nc1ccc(Br)cc1` [Compound 3i, N-(4-Bromophenyl)-2-(3-fluoro-4-nitrophenoxy)acetamide], the melting point fell in the range of 166 to 167 °C. In [6], this molecule displayed an MIC of 32 µg/mL (≈ 86.7 µM).

Consider `N#Cc1ccccc1NC(=O)COc1ccc([N+](=O)[O-])c(F)c1` [Compound 3j, N-(2-Cyanophenyl)-2-(3-fluoro-4-nitrophenoxy)acetamide], for which the melting point lay within 172 to 174 °C. This molecule also had an MIC in [6] of 64 µg/mL (≈ 203 µM).

Molecule `O=C(COc1ccc([N+](=O)[O-])c(F)c1)Nc1ccccc1C(F)(F)F` [Compound 3k, 2-(3-Fluoro-4-nitrophenoxy)-N-(2-(trifluoromethyl)phenyl)acetamide] had a melting point of 146 to 147 °C. This molecule also displayed an MIC in [6] of 64 µg/mL (≈ 179 µM).

As to `O=C(COc1ccc([N+](=O)[O-])c(F)c1)Nc1ccc(OC(F)(F)F)cc1` [Compound 3l, 2-(3-Fluoro-4-nitrophenoxy)-N-(4-(trifluoromethoxy)phenyl)acetamide], the melting point is 146 to 148 °C. In series [6], this molecule showed an MIC of 32 µg/mL (≈ 85.5 µM).

`O=C(COc1ccc([N+](=O)[O-])c(F)c1)Nc1ccccc1[N+](=O)[O-]` [Compound 3m, 2-(3-Fluoro-4-nitrophenoxy)-N-(2-nitrophenyl)acetamide] gave a melting point of 201 to 202 °C. The molecule also had a concentration for half-maximal inhibition (IC50) in series [1] (HeLa, 48 h) of over 40 µM. The molecule also came in with an IC50 in [2] (HepG2, 48 h) of over 40 µM. The same molecule registered an IC50 in series [3] (SK-OV-3, 48 h) of over 40 µM. In [4] (A549, 48 h), the IC50 is over 40 µM. This molecule also yielded an IC50 in series [5] (A-375, 48 h) of over 40 µM. Also, the MIC in [6] worked out at 4 µg/mL (≈ 11.9 µM). In [7] (HCT-116, 48 h), this molecule yielded an IC50 of over 40 µM. Also, the IC50 in series [9] (one bound stated for all six cell lines, read-out: IC50 against the tested six different cell lines) was over 40 µM. Moreover, in [9] (result in words), the “inhibitory effects against six different tumor cell lines” value was “no inhibitory effects” and the “safety profile / toxicity in six different cell lines” value is “good safety profile”. The molecule also came in with an IC50 in series [8] (Vero, 48 h) of over 40 µM. Also, the “safety profile in a vero cell line” value in series [8] (MTT assay, result in words) is given as “good safety profile”.

As for `O=C(COc1ccc([N+](=O)[O-])c(F)c1)Nc1ccc(Br)cc1Cl` [Compound 3n, N-(4-Bromo-2-chlorophenyl)-2-(3-fluoro-4-nitrophenoxy)acetamide], the melting point was 173 to 175 °C. In addition, the MIC in series [6] came out at 32 µg/mL (≈ 79.3 µM).

Molecule `O=C(COc1ccc([N+](=O)[O-])c(F)c1)Nc1ccc(C(F)(F)F)cc1` [Compound 3o, 2-(3-Fluoro-4-nitrophenoxy)-N-(4-(trifluoromethyl)phenyl)acetamide] returned a melting point of 173 to 175 °C. For the same molecule, the concentration for half-maximal inhibition (IC50) in series [1] (setting [10]) is 33.8 ± 1.7 µM. The IC50 in [2] (setting [11]) is over 40 µM. Further, the half-maximal inhibitory concentration (IC50) in series [3] (setting [12]) came out at 28.6 ± 2.3 µM. The IC50 in series [4] (setting [13]) was over 40 µM. Also, the half-inhibitory concentration (IC50) in [5] (setting [14]) is 28.3 ± 1.2 µM. For the same molecule, it took 16 µg/mL (≈ 44.7 µM) to inhibit growth in [6] (MIC). In addition, in series [7] (setting [15]), the IC50 is over 40 µM. Moreover, the IC50 in [8] (setting [16]) was over 40 µM.

For `Cc1ccc([N+](=O)[O-])cc1NC(=O)COc1ccc([N+](=O)[O-])c(F)c1` [Compound 3p, 2-(3-Fluoro-4-nitrophenoxy)-N-(2-methyl-5-nitrophenyl)acetamide], the melting point was in the range of 211 to 213 °C. Besides, 64 µg/mL (≈ 183 µM) was the least that counted as inhibitory in [6] (MIC).

Regarding `COC(=O)COc1ccc(NC(=O)COc2ccc(C)cc2C)cc1` [I, methyl 2-(4-(2-(2,4-dimethylphenoxy)acetamido)phenoxy)acetate], the MIC in series [6] came out at 4 µg/mL (≈ 11.6 µM).

Consider `NNC(=O)c1ccncc1` [Isoniazide], for which the MIC in series [6] was 0.0625 µg/mL (≈ 0.456 µM).

The record behind these values is paper PMC6268079, “Synthesis and Biological Evaluation of 2-(3-Fluoro-4-nitro phenoxy)-N-phenylacetamide Derivatives as Novel Potential Affordable Antitubercular Agents” (Molecules, 2012).
